Where two headings read alike, the source gives them in different places.
Legend:
[1] = target: H.s. PI(4)K (Homo sapiens, UniProt Q9UBF8); test: H.s. PI(4)K IC50; type: biochemical; conditions: read-out: (d) H.s.* PI(4)K IC50
[2] = tested on: Cryptosporidium parvum; test: Cytopathic effect (CPE) based assay, C. parvum-infected HCT-8 cells; type: cell-based; conditions: HCT-8, 48 h, read-out: (b) C.p.* CPE EC50 (μM)
Protocol: (§1) Human ileocecal colorectal adenocarcinoma cells (HCT-8 [HRT-18] ATCC, CCL-34) were maintained in T-175 flasks (Corning, 431080) in complete growth medium (RPMI-1640 medium (Gibco, 11875) supplemented with 10% heat-inactivated horse serum (Gibco, 26050), 1× MEM non-essential amino acids (Gibco, 11140), 10 mM HEPES (Gibco, 15630), 100 units/mL penicillin, and 100 units/mL streptomycin) at 37° C. and 5% CO2 in a humidified incubator. Cultures were passaged twice weekly using 10 mL of 1× Phosphate-Buffered Saline (PBS) without Ca^2+ and Mg^2+ (Gibco, 20012) for washing and 3-5 mL per T-175 flask of TrypLE Express Enzyme (Gibco, 12604) for dissociation of adherent cells.
Cryptosporidium parvum oocysts purchased from the Sterling Laboratory, University of Arizona (Iowa isolate) were purified from infected calf feces using discontinuous sucrose and cesium chloride centrifugation gradients and stored in PBS solution containing 0.01% Tween 20, 100 units/mL penicillin and 100 units/mL gentamicin.
(§2) Excystaion and infection: Excystation and infection protocols were developed following established methods with some modifications (Gut & Nelson, 1999, Upton et al., 1995, Bessoff et al., 2013). Briefly, oocysts were primed in 1 mL of 10 mM hydrochloric acid in 1× Hank's Balanced Salt Solution (HBSS) (Gibco, 14025) for 10 minutes with agitation at 1000 rpm, 37° C. on an Eppendorf thermomixer, then washed twice with 1 mL of room temperature non-acidic 1× HBSS by centrifugation at 13,000 rpm for 3 minutes at 25° C. Primed oocysts were further excysted at a concentration of 1×10^6 oocysts/μL in parasite infection medium consisting of a pre-warmed and pre-gassed 1:1 formulation of Leibovitz's L-15 medium (Gibco, 11415) and UltraCULTURE medium (Lonza, 12-725F) supplemented with 2 mM sodium taurocholate (Sigma, 86339-1), 10% heat-inactivated horse serum, and 200 μM L-ascorbic acid (Sigma, 95210) at 25° C. for 10 minutes. HCT-8 monolayer cells were infected with excysted cryptosporidium at a specified multiplicity of infection (MOI). All dilutions for subsequent assays were performed in parasite infection medium without sodium taurocholate. Pre-excysted oocysts were enumerated microscopically using a C-Chip disposable hemocytometer (NanoEnTek, DHC-N01).
Compound and assay plate preparation: Compound powders were dissolved in neat DMSO (Fisher, D4121) to 10 mM and stored at 4° C. prior to dilution into source plates. Dilutions were carried out using a Microlab STAR liquid handler (Hamilton) to obtain compound source plates containing the ten-point or eight-point three fold dilutions starting from 10 mM in duplicates. Source plates were stored at 4° C. prior to spotting into assay plates. Before administration, all compound source plates were equilibrated to room temperature. A specified volume of compounds from source plate were spotted to assay plate using an Echo Acoustic liquid handler (LABCYTE, 550) so that the final DMSO concentration was less than 0.5%. Each assay plate a specified number of DMSO-treated negative control wells and a well-studied potent active compound at 100 nM as positive control. As a quality control, all positive and negative-control wells were used to calculate a Z′-value and signal to noise ratio (S:N) for each plate.
Cryptosporidium spp are obligate-intracellular parasites that infect intestinal epithelial cells and the host cell is killed upon parasite egress. […] The loss of epithelial cells is due to both rapid parasite invasion/multiplication/egress and also pro-inflammatory immune response (Adams et al., 1994, Griffiths et al., 1994). We have observed a consistent cytopathic effect (CPE) in HCT-8 cells with C. spp infection the loss of viability of the host cells using CellTiter-Glo reagent.
Confluent HCT-8 cells in T-175 flasks were directly infected with excysted oocysts at an MOI (host to parasite) of 1:2 for C. parvum and 1:4 for C. hominis. […]

[3] = target: C. parvum PI(4)K (Cryptosporidium parvum, UniProt Q5CVD3); test: CpPI(4)K enzymatic assay (Transcreener ADP2 FP); type: biochemical
Excerpt: Baculovirus expression and purification of C. parvum phosphatidylinositol 4-kinase: The full-length coding sequence of C. parvum PI(4)K (cgd8_4500, 1114 amino acids) was codon-optimized for baculovirus expression, synthesized and cloned into pFastBac-HTb (Invitrogen 10584-027) in frame with the amino-terminal polyhistidine tag using the BamHI and HindIII restriction sites. Recombinant pFastBacHTb-CpPI(4)K bacmid clones were generated by site-specific transposition in E. coli DH10Bac (Invitrogen 10361-012). The bacmid sequence was confirmed by direct DNA sequencing to confirm a lack of mutations across the whole gene. The subsequent steps for bacmid isolation, transfection and selection of the recombinant viruses were performed according to the manufacturer's protocol (Bac-to-Bac system #10359, Invitrogen).
SF9 cells, cultured in […] serum-free medium, were transfected with recombinant baculovirus at 1/200 (v/v) and incubated at 27° C. for 72 h. The pellets were collected after centrifugation and re-suspended in cell lysis buffer (20 mM Tris-HCl, pH 7.5, 300 mM NaCl, 1 mM DTT, 20 mM imidazole, 0.01% Triton X-100 and 1× complete protease inhibitor cocktail without EDTA (Roche Diagnostics 04693116001)). The cell suspension was lysed by sonication and the clarified supernatant was loaded onto a 1 ml HisTrap affinity column (GE Healthcare) pre-equilibrated with buffer A (20 mM Tris-HCl, pH 7.5, 300 mM NaCl, 1 mM DTT, 20 mM Imidazole, and 1× complete protease inhibitor cocktail without EDTA). The column was washed with buffer B (buffer A containing 45 mM imidazole) and the bound protein of interest was eluted with buffer C (buffer A with 90 mM imidazole). The fractions containing CpPI(4)K were pooled, concentrated using Amicon Ultra-15 and purified by a gel-filtration column (Hi-Load 26/60 Superdex 200, GE Healthcare) equilibrated with 20 mM Tris, pH 7.5, 300 mM NaCl, 1 mM DTT and 1× protease inhibitor cocktail without EDTA. The concentrations of the purified protein (Mw 132.39 kda) was determined by using the protein molar extinction coefficient (ε280 nm=133,810 M^−1 cm^−1). Aliquots were flash frozen in liquid nitrogen and immediately stored at −80° C.
PI(4)K enzymatic Assay The CpPI(4)K enzymatic assay was performed as described earlier with a some modifications (McNamara et al., 2013). Briefly, L-α-phosphatidylinositol (Avanti Polar Lipid 840046), dissolved in 3% n-octylglucoside (Roche Diagnostics 10634425001), was used as the lipid substrate for the PI(4)K activity assay. CpPI(4)K was assayed using Transcreener ADP2 FP detection kit (BellBrook 3010) in a black, solid 384-well plate (Corning 3575). The final assay volume was 10 μl and contained 3 nM of the respective CpPI(4)K construct in 10 mM Tris, pH 7.5, 1 mM DTT, 3 μM ATP, 5 mM Mn2+, 0.05% Triton X-100 and 10 μM phosphatidylinositol/octylglucoside. The enzyme reaction was performed for 50 minutes at room temperature and was stopped by adding 10 μl of detection mix containing 1× stop buffer (50 mM HEPES, pH7.5, 400 mM NaCl, 20 mM EDTA, and 0.02% Brij-35), 2 nM AMP Alexa Fluor 633 tracer, and 20 μg ml^−1 ADP antibody. Fluorescence polarization measurements were performed on the Infinite M1000 plate reader (Tecan) with λex=635 nm and λem=680 nm (20-nm bandwidth). IC50 values were calculated using Graphpad Prism software.

[4] = tested on: Cryptosporidium hominis; test: Cytopathic effect (CPE) based assay, C. hominis-infected HCT-8 cells; type: cell-based
Protocol: as §1
Cryptosporidium hominis oocysts were purchased from the Tufts University Cummings School of Veterinary Medicine (courtesy of Dr. Saul Tzipori). C. hominis oocysts were purified from infected gnotobiotic piglet feces and stored in PBS solution containing 0.01% Tween-20, 100 units/mL penicillin and 100 units/mL gentamicin. C. parvum and C. hominis oocysts less than three months old from the date of shedding were used in infection experiments.
as §2
Compound and assay plate preparation: Compound powders were dissolved in neat DMSO (Fisher, D4121) to 10 mM and stored at 4° C. prior to dilution into source plates. Dilutions were carried out using a Microlab STAR liquid handler (Hamilton) to obtain compound source plates containing the ten-point or eight-point three fold dilutions starting from 10 mM in duplicates. […]

[5] = HCT-8 host cells, 48 hours treatment, CellTiter-Glo, read-out: (c) C.h.* CPE EC50

Sequence of C. parvum PI(4)K (Q5CVD3 entry or part of it): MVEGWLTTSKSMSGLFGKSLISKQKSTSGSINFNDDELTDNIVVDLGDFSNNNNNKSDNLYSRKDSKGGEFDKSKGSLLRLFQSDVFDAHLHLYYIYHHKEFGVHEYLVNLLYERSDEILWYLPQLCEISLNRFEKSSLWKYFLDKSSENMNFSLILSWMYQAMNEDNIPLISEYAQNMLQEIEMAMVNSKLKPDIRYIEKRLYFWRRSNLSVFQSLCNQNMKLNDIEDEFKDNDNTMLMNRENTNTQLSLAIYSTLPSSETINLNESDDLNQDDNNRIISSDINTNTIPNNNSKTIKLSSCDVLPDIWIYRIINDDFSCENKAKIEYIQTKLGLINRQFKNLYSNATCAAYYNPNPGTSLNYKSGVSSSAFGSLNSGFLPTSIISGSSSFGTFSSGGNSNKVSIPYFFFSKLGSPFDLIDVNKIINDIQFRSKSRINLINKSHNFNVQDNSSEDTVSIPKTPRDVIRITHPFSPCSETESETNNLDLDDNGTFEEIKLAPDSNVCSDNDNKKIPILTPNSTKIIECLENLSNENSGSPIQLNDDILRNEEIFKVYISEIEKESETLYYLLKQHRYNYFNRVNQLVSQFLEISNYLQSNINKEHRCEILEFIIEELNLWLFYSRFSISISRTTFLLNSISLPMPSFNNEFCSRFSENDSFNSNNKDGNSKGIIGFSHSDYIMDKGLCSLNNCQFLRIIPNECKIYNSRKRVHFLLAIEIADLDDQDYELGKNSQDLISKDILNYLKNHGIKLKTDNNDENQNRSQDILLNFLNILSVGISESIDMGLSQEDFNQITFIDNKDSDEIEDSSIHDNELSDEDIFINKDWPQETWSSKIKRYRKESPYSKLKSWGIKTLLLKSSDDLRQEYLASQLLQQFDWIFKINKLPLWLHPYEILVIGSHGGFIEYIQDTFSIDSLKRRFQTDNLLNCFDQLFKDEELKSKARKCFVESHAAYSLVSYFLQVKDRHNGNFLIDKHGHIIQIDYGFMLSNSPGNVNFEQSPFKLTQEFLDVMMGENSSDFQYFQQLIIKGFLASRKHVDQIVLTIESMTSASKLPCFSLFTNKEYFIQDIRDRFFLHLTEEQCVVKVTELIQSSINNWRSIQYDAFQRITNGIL
Sequence of H.s. PI(4)K (Q9UBF8 2-816 limits assumed): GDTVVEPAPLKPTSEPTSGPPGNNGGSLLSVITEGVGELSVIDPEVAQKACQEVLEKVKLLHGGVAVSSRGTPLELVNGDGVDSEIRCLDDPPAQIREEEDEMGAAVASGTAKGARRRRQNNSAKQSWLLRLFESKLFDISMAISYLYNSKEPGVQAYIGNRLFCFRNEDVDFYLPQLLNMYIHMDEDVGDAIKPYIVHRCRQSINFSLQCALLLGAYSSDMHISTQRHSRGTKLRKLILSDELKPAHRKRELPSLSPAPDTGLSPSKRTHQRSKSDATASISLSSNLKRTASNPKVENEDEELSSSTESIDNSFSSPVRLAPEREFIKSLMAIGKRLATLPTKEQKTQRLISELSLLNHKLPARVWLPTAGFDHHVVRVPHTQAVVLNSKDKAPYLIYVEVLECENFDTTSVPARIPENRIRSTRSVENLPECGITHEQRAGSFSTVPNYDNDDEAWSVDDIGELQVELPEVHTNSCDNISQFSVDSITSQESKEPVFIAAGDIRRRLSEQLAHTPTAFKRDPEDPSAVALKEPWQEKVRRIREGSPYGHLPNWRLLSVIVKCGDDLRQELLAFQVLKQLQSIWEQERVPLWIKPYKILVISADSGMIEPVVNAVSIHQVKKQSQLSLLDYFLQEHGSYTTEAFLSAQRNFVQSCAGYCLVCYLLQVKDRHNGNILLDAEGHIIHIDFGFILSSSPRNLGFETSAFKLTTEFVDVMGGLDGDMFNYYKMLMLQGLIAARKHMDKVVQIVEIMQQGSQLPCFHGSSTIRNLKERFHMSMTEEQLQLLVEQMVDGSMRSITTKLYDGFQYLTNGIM

Row | SMILES | IC50 [1] [nM] | EC50 [2] [µM] | IC50 [3] [nM] | EC50 ([4]; HCT-8, 48 h, read-out: (c) C.h.* CPE EC50 (μM)) [µM] | EC50 [4, 5] [µM]
1 | CNC(=O)c1ccc(-c2cnn3ccc(C(=O)N(C)c4ccc(Cl)c(C(=O)OC)c4)cc23)cc1 [Example 1.16, Methyl 2-chloro-5-(N-methyl-3-(4-(methylcarbamoyl)phenyl)pyrazolo[1,5-a]pyridine-5-carboxamido)benzoate] | 100 to 1000 | < 0.1 | < 100 | < 0.1 | 
2 | CNC(=O)c1ccc(-c2cnn3cnc(C(=O)N(C)c4ccc(Cl)c(C(=O)OC)c4)cc23)cc1 [Example 3.1, Methyl 2-chloro-5-(N-methyl-3-(4-(methylcarbamoyl)phenyl)pyrazolo[1,5-c]pyrimidine-5-carboxamido)benzoate] | > 1000 | 0.1 to 1 | < 100 |  | 0.1 to 1
3 | COC(=O)c1cc(Cl)ccc1N(C)C(=O)c1ccn2ncc(-c3ccc(C(N)=O)cc3)c2c1 [Example 4.1, Methyl 2-(3-(4-carbamoylphenyl)-N-methylpyrazolo[1,5-a]pyridine-5-carboxamido)-5-chlorobenzoate] | 100 to 1000 | < 0.1 | < 100 |  | < 0.1

Reference: patent US12018024B2, “Compounds and compositions for the treatment of cryptosporidiosis” (Novartis AG, priority 2020, dated 2024)
